Like-named read-outs stand apart in the source and are kept apart here.
How the values were obtained:
[1] = test system: S. pneumoniae; experiment: Antibacterial activity (MIC); type: cell-based; details: Streptococcus pneumoniae; strain A-9585
[2] = test system: S. pyogenes; experiment: Antibacterial activity (MIC); type: cell-based; details: Streptococcus pyogenes; strain A-9604
[3] = test system: S. aureus; experiment: Antibacterial activity (MIC); type: cell-based; details: Staphylococcus aureus
[4] = test system: S. faecalis; experiment: Antibacterial activity (MIC); type: cell-based; details: Enterococcus faecalis; strain A20688
[5] = test system: E. coli; experiment: Antibacterial activity (MIC); type: cell-based; details: Escherichia coli
[6] = test system: K. pneumoniae; experiment: Antibacterial activity (MIC); type: cell-based
[7] = test system: P. mirabilis; experiment: Antibacterial activity (MIC); type: cell-based; details: Proteus mirabilis; strain A-9900
[8] = test system: P. vulgaris; experiment: Antibacterial activity (MIC); type: cell-based; details: Proteus vulgaris; strain A21559
[9] = test system: P. morganii; experiment: Antibacterial activity (MIC); type: cell-based; details: Morganella morganii; strain A15153
[10] = test system: P. rettgeri; experiment: Antibacterial activity (MIC); type: cell-based; details: Providencia rettgeri; strain A21203
[11] = test system: S. marcescens; experiment: Antibacterial activity (MIC); type: cell-based; details: Serratia marcescens; strain A20019
[12] = test system: E. cloacae; experiment: Antibacterial activity (MIC); type: cell-based; details: Enterobacter cloacae
[13] = test system: P. aeruginosa; experiment: Antibacterial activity (MIC); type: cell-based
[14] = test system: B. fragilis; experiment: Anti-Bacteroides activity (MIC, agar dilution), alone and in combination with BL-P2013; type: cell-based
[15] = test system: B. thetaiotaomicron; experiment: as above; type: cell-based
Method: *Minimum inhibitory concentration (MIC) determined by the agar dilution
method using 50X dilutions of 24 hour cultures as inocula dispensed by th
Steer's inoculator. Assay medium composed of Brucella Agar plus 5% laked
sheep blood and 10 mcg/ml vitamin K.

[16] = test system: Bacteroides species; experiment: as above; type: cell-based
[17] = test system: S. aureus A-9606; experiment: Therapeutic efficacy in mice experimentally infected with a beta-lactamase strain of Staphylococcus aureus (Table 3); type: in vivo; details: for ED50: Staphylococcus aureus, A9606, challenge 5 × 10^8, read-out: PD50/Treatment
Method: Treatment schedule: Drugs administered 0 and 2 hours postinfection.

[18] = Blood levels after oral administration to mice (Table 4); type: in vivo; details: mouse; for concentration at 0.5 h: 30 min; for concentration at 1 h: 60 min; for concentration at 2 h: 120 min
[19] = test system: β-lactamase producing strains of E. coli; experiment: animal or person; type: in vivo, mice; details: Escherichia coli, in Mus musculus, po
Method: (§1) Drugs were administered orally at 0 and 2 hours postinfection.
(§2) Drugs were suspended in TCMC.

[20] = test system: β-lactamase producing strains of S. aureus; experiment: animal or person; type: in vivo, mice; details: Staphylococcus aureus, in Mus musculus, po
Method: as §1, §2

[21] = test system: β-lactamases; experiment: Inhibition of β-lactamases; type: biochemical
[22] = test system: bacteria; experiment: Antibacterial activity (statement); type: cell-based
[23] = test system: β-lactamase-producing bacteria; experiment: Protection of ceforanide and amoxicillin from destruction by β-lactamase-producing bacteria; details: in vitro and in vivo, in combination
[24] = 100 mg/kg, oral 100 mg/kg, assay organism E. coli A-9675, read-out: Blood level
[25] = 100 mg/kg, oral 100 mg/kg, assay organism S. aureus A-9606, read-out: Blood level
[26] = 200 mg/kg, oral 200 mg/kg, assay organism S. aureus A-9606, read-out: Blood level

CC1(CCl)C(C(=O)O)N2C(=O)CC2S1(=O)=O (stereo not drawn) [BL-P2013, Potassium 2β-Chloromethyl-2α-methylpenam-3α-carboxylate Sulfone]
MIC [1]: 16 µg/mL | MIC [2]: 63 µg/mL | MIC ([3]; strain A15097, Meth-Res): > 125 µg/mL | MIC ([3]; strain A-9537): > 125 µg/mL | MIC ([3]; strain A-9537, + 50% serum): > 125 µg/mL | MIC ([3]; strain A-9606, Pen-Res): > 125 µg/mL | MIC [4]: > 125 µg/mL | MIC ([5]; strain A15119): > 125 µg/mL | MIC ([5]; strain A20341-1): > 125 µg/mL | MIC ([6]; Klebsiella pneumoniae, strain A15130, read-out: MIC): > 125 µg/mL | MIC ([6]; strain A20468): > 125 µg/mL | MIC [7]: > 125 µg/mL | MIC [8]: > 125 µg/mL | MIC [9]: > 125 µg/mL | MIC [10]: > 125 µg/mL | MIC [11]: > 125 µg/mL | MIC ([12]; strain A-9656): > 125 µg/mL | MIC ([12]; strain A-9659): > 125 µg/mL | MIC ([13]; Pseudomonas aeruginosa, strain A-9843A, read-out: MIC): > 125 µg/mL | MIC ([13]; strain A21213): > 125 µg/mL | MIC ([14]; strain A21875, β-lactamase +): 63 µg/mL | MIC ([14]; strain A21916, β-lactamase +, read-out: MIC): > 125 µg/mL | MIC ([14]; strain A22021, β-lactamase +, read-out: MIC): 32 µg/mL | MIC ([14]; strain A22053, β-lactamase +): 63 µg/mL | MIC ([14]; strain A22533, β-lactamase +, read-out: MIC): 32 µg/mL | MIC ([14]; strain A22534, β-lactamase +, read-out: MIC): 125 µg/mL | MIC ([14]; strain A22535, β-lactamase +, read-out: MIC): 125 µg/mL | MIC ([14]; strain A22693, β-lactamase +): 63 µg/mL | MIC ([14]; strain A22694, β-lactamase +): 63 µg/mL | MIC ([14]; strain A22695, β-lactamase +, read-out: MIC): 32 µg/mL | MIC ([14]; strain A22696, β-lactamase +): 63 µg/mL | MIC ([14]; strain A22697, β-lactamase +): 63 µg/mL | MIC ([14]; strain A22792, β-lactamase +, read-out: MIC): 32 µg/mL | MIC ([14]; strain A22793, β-lactamase +, read-out: MIC): 32 µg/mL | MIC ([14]; strain A22794, β-lactamase +, read-out: MIC): 32 µg/mL | MIC ([14]; strain A22795, β-lactamase +, read-out: MIC): 32 µg/mL | MIC ([14]; strain A22797, β-lactamase +): 63 µg/mL | MIC ([14]; strain A22798, β-lactamase +): 63 µg/mL | MIC ([15]; Bacteroides thetaiotaomicron, strain A22277, β-lactamase +, read-out: MIC): 63 µg/mL | MIC ([15]; strain A22279, β-lactamase +): 63 µg/mL | MIC ([16]; Bacteroides): 63 µg/mL | MIC ([16]; Bacteroides, strain A20929, β-lactamase +, read-out: MIC): 32 µg/mL | MIC ([16]; Bacteroides, strain A20930, β-lactamase +, read-out: MIC): 125 µg/mL | MIC ([16]; Bacteroides, strain A20931, β-lactamase +, read-out: MIC): 32 µg/mL | MIC ([16]; Bacteroides, strain A20934, β-lactamase +, read-out: MIC): 32 µg/mL | MIC ([16]; Bacteroides, strain A20935, β-lactamase -, read-out: MIC): 125 µg/mL | MIC ([16]; Bacteroides, strain A21959, β-lactamase +, read-out: MIC): 32 µg/mL | MIC ([16]; strain A20927-1, β-lactamase -): 63 µg/mL | MIC ([16]; strain A20933, β-lactamase +): 63 µg/mL | PD50/Treatment ([17]; IM, challenge 7 × 10^8): > 50 mg/kg | ED50 ([17]; IM): > 50 mg/kg | ED50 ([17]; PO): > 200 mg/kg | concentration at […] ([18]; 100 mg/kg, oral 100 mg/kg, 15 min, assay organism E. coli A-9675, read-out: Blood level): 4500 ng/mL | concentration at […] ([18]; 100 mg/kg, oral 100 mg/kg, 15 min, assay organism S. aureus A-9606, read-out: Blood level): 4600 ng/mL | concentration at 0.5 h [18, 24]: 5100 ng/mL | concentration at 0.5 h [18, 25]: 4100 ng/mL | concentration at 1 h [18, 25]: 3000 ng/mL | concentration at […] ([18]; 100 mg/kg, oral 100 mg/kg, 90 min, assay organism E. coli A-9675, read-out: Blood level): 2300 ng/mL | concentration at […] ([18]; 100 mg/kg, oral 100 mg/kg, 90 min, assay organism S. aureus A-9606, read-out: Blood level): < 2600 ng/mL | concentration at 2 h [18, 24]: 1500 ng/mL | concentration at 2 h [18, 25]: < 2600 ng/mL | concentration at […] ([18]; 100 mg/kg, oral 100 mg/kg, 150 min, assay organism S. aureus A-9606, read-out: Blood level): < 2600 ng/mL | half-life ([18]; 100 mg/kg, oral 100 mg/kg, assay organism E. coli A-9675): 50 min | concentration at […] ([18]; 200 mg/kg, oral 200 mg/kg, 15 min, assay organism S. aureus A-9606, read-out: Blood level): 7400 ng/mL | concentration at 0.5 h [18, 26]: 9800 ng/mL | concentration at 1 h [18, 26]: 7100 ng/mL | concentration at […] ([18]; 200 mg/kg, oral 200 mg/kg, 90 min, assay organism S. aureus A-9606, read-out: Blood level): 4100 ng/mL | concentration at 2 h [18, 26]: 2800 ng/mL | concentration at […] ([18]; 200 mg/kg, oral 200 mg/kg, 150 min, assay organism S. aureus A-9606, read-out: Blood level): < 2600 ng/mL | half-life ([18]; 200 mg/kg, oral 200 mg/kg, assay organism S. aureus A-9606): 50 min | ED50 ([19]; read-out: PD50/Treatment, oral, E. coli A9675, challenge 6 × 10^5): > 200 mg/kg | ED50 ([19]; read-out: PD50/Treatment, oral, E. coli A9675, challenge 7 × 10^5): > 100 mg/kg | ED50 ([19]; read-out: PD50/Treatment, oral, E. coli A9675, challenge 8 × 10^5): > 200 mg/kg | ED50 ([19]; read-out: PD50/Treatment, oral, E. coli A20649, challenge 5 × 10^5): > 200 mg/kg | ED50 ([19]; read-out: PD50/Treatment, oral, E. coli A20649, challenge 6 × 10^5): > 200 mg/kg | ED50 ([19]; read-out: PD50/Treatment, oral, E. coli A21223, challenge 6 × 10^5): > 200 mg/kg | ED50 ([19]; read-out: PD50/Treatment, oral, E. coli A21223, challenge 7 × 10^5 (first line)): > 200 mg/kg | ED50 ([19]; read-out: PD50/Treatment, oral, E. coli A21223, challenge 7 × 10^5 (third line)): > 200 mg/kg | ED50 ([20]; read-out: PD50/Treatment, oral, S. aureus A9606, challenge 2 × 10^9): > 200 mg/kg | ED50 ([20]; read-out: PD50/Treatment, oral, S. aureus A9606, challenge 7 × 10^8): > 200 mg/kg | ED50 ([20]; read-out: PD50/Treatment, oral, S. aureus A15091, challenge 4 × 10^8): > 200 mg/kg | ED50 ([20]; read-out: PD50/Treatment, oral, S. aureus A15091, challenge 5 × 10^8): > 200 mg/kg | ED50 ([20]; read-out: PD50/Treatment, oral, S. aureus A20379, challenge 5 × 10^8): > 200 mg/kg | ED50 ([20]; read-out: PD50/Treatment, oral, S. aureus A20379, challenge 6 × 10^8): 174 mg/kg | β-lactamase inhibition [21]: inhibits β-lactamases | antibacterial activity [22]: at best a very weak antibacterial agent | protection of ceforanide and amoxicillin from destruction [23]: protected ceforanide and amoxicillin from destruction by β-lactamase-producing bacteria in vitro and in vivo

— US4340539A, “Derivatives of 6-bromo penicillanic acid” (priority 1980, dated 1982)
